Columns and labels:
[1] = tested on: HepG2 cells; assay: GTP concentration in folic acid challenged HepG2 cells; type: cell-based, human
Experimental: HepG2 cells, a human hepatocarcinoma cell line, were obtained from ATCC. These were maintained in MEM supplemented with 10% FCS; 1% NEAA; 1% penicillin/streptomycin mixture. Cells were seeded primarily at a density of approximately 1-2×10^6 cells and were split and transferred to new flasks when showing 70-90% confluency. 96-well microtitre plates (ex Micronic, Leylstad, N L.), containing 0.35×10^6 cells per well were incubated for 24 hours at 37° C.; 5% CO2. HepG2's were folic acid challenged by addition of folic acid free media for 1 hour. This folic acid challenged cells were compared with cells that remained at an increasing concentration of folic acid or ribose.
Nucleotides were measured as described by van Hoorn et al., Analytical Biochemistry (2003), 320, 82-87.
1. 6.5 hours incubation of HepG2 cells in either folic acid depleted media or media containing 2.27 μM folic acid

[2] = Oxidative stress, plasma concentrations of malon dialdehyde
[3] = biological target: xanthine oxidase (Homo sapiens, UniProt P47989); assay: Xanthine oxidase inhibition by flavonoids; type: biochemical
Chain of xanthine oxidase (P47989 whole entry, species assumed): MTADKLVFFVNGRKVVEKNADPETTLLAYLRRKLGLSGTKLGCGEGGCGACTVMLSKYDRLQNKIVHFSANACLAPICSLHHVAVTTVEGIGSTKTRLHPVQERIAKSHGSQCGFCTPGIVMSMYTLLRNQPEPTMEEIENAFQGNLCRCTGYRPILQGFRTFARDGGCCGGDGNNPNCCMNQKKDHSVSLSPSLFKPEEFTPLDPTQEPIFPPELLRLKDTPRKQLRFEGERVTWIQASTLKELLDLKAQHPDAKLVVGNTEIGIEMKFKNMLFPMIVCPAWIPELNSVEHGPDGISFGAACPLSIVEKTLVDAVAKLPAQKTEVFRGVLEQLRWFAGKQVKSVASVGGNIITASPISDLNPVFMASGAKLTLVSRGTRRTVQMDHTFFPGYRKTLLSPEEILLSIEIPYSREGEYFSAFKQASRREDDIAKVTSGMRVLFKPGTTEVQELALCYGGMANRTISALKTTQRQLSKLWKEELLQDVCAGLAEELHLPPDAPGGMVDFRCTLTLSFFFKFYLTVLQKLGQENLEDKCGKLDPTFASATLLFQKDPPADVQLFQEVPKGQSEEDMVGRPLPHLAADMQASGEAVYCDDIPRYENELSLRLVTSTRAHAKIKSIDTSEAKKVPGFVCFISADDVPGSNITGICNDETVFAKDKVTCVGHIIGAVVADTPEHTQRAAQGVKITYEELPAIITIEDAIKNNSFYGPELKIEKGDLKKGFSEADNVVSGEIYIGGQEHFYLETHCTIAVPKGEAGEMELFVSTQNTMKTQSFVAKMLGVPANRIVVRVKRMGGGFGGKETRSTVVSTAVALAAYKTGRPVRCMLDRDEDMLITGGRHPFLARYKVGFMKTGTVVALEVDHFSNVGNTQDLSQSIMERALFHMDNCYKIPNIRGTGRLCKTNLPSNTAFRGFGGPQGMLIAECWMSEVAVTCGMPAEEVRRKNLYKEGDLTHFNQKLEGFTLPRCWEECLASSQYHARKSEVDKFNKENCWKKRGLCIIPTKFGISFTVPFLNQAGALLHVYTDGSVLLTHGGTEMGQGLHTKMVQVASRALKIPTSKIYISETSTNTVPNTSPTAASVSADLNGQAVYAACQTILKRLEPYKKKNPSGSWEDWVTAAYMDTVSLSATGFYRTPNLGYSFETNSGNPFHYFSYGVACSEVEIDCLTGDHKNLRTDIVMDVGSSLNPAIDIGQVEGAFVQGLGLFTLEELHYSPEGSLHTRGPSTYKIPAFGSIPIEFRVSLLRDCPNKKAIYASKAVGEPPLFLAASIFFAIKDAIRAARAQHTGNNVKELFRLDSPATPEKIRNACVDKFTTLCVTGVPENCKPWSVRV

SMILES | GTP concentration in HepG2 cells, ribose on top of folic acid ([1]; combination of ribose with folic acid, FIG. 10) | oxidative stress, plasma concentrations of malon dialdehyde [2] | xanthine oxidase inhibition [3] | GTP concentration in HepG2 cells ([1]; single agent vs folic acid challenged cells, folic acid 2.27 μM, 6.5 hours)
O=C[C@H](O)[C@H](O)[C@H](O)CO [ribose] | additive effect | – | – | –
O=c1cc(-c2ccc(O)cc2)oc2cc(O)cc(O)c12 [apigenin] | – | inhibit oxidative stress | good xanthine oxidase inhibitors | –
O=c1c(O)c(-c2ccc(O)c(O)c2)oc2cc(O)cc(O)c12 [quercetin] | – | inhibit oxidative stress | good xanthine oxidase inhibitors | –
Nc1nc2ncc(CNc3ccc(C(=O)N[C@@H](CCC(=O)O)C(=O)O)cc3)nc2c(=O)[nH]1 [folic acid] | – | – | – | significantly increased
O=c1cc(-c2ccc(O)c(O)c2)oc2cc(O)cc(O)c12 [luteolin] | – | inhibit oxidative stress | good xanthine oxidase inhibitors | –

— patent publication US20070225203A1, “Method and Composition for Preventing Multiple Organ Dysfunction Syndrome” (N.V. NUTRICIA, priority 2003, published 2007)
